Assay [1] concerns human ovarian cancer cell line AZ23247. The assay is described as follows: Cell survival assay (crystal violet). To be noted: AZ23247, 30 μM and 50 μM. In kind it is cell-based. Here is the method: (§1) Typically, the small molecule compounds of the present invention were dissolved in DMSO at a concentration of 30 mM. The small molecule compounds were then tested under cell culture conditions at different concentrations ranging from 0, 10, 30, 50, to 100 uM. To determine cell survival after treatment, the cells were incubated with the small molecule compounds in 6-well plates for about 3 days. After removal of the cell culture medium, 1-ml of 0.5% crystal violet solution (prepared in 20% ethanol and 20% methanol) was added to stain the cells for 5 min. Then the crystal violet solution was rinsed clean with tap water. Cell survival was estimated based on the density of crystal stained plates.
The cell-based cytotoxicity assay described herein was used to determine the effect of small molecule compounds FN1-5 and FN1-8 in the human ovarian cancer cell line AZ23247. Viability of AZ23247 cells was analyzed after treatment with 10, 30 and 50 μM FN1-5 or FN1-8.

Assay [2] relates to human pancreatic cancer cell lines L3.6sl, Panc4.21, BxPC3, and CFPAC-1. Description: Cell survival assay (crystal violet). It counts as cell-based. To be noted: for cell killing: 50 μM, all pancreatic lines analyzed. Here is the method:
as §1
The cell-based cytotoxicity assay described herein was used to determine the effect of small molecule compounds FN1-5 and FN1-8 on the human pancreatic cancer cell lines L3.6sl, Panc4.21, BxPC3, and CFPAC-1. Viability of these cells was analyzed after treatment with 10, 30 and 50 μM FN1-5 or FN1-8. […] However, cell killing mediated by FN1-5 in Panc4.21 was less when compared to its effect on the three other pancreatic cancer cell lines.

Assay [3] concerns human hepatocellular carcinoma cell lines HEPG2 and SK-Hep-1. Description: Cell survival assay (crystal violet). It counts as cell-based. The conditions noted are these: for cell killing: 50 μM. As to the method: as §1
The cell-based cytotoxicity assay described herein was used to determine the effect of small molecule compounds FN1-5 and FN1-8 in the human hepatocellular carcinoma cell lines HEPG2 and SK-Hep-1. Viability of these cells was analyzed after treatment with 10, 30 and 50 μM FN1-5 or FN1-8.

For assay [4], the system named is L3.6s1 (pancreatic cancer). Description: Apoptosis analysis (Annexin V FITC, flow cytometry). In kind it is cell-based, human. The conditions noted are these: 3 days. As to the method:
(§2) Apoptosis was analyzed by using an Annexin V FITC Apoptosis Detection Kit (Biosource, Camarillo, Calif.), according to the manufacturer's protocol. After treatment with different small molecule compounds at various concentrations for about 3 days, cells were harvested by trypsinization, stained and immediately analyzed by flow cytometry (FACScan; Decton Dickinson, Franklin Lake, N.J.). Early apoptotic cells with exposed phosphatidylserine but intact cell membranes will bind to Annexin V-FITC, but not propidium iodide (PI). Cells in necrotic or late apoptotic stages will be labeled with both Annexin V-FITC and PI. “% apoptotic cells” or “% apoptosis” refers to the combined early and late apoptotic cells.
(§3) Flow cytometry was also used to examine apoptosis induced by molecule compounds FN1-5 and FN1-8 in the human pancreatic cancer cell lines L3.6sl, Panc4.21, BxPC3, and CFPAC-1 cells. […] For example, app.
(Flow cytometry measures light scatter and fluorescence of single cells or particles in a stream.)

For assay [5], the system named is Panc4.21 (pancreatic cancer). The assay is described as above. In kind it is cell-based, human. To be noted: 3 days. Here is the method: as §2, §3
The test system of assay [6] is CFPAC-1 (pancreatic cancer). The assay is described as above. In kind it is cell-based, human. To be noted: 3 days. As to the method:
as §2, §3

For assay [7], the system named is BxPC3 (pancreatic cancer). The description is as above. It counts as cell-based, human. The conditions noted are these: 3 days. As to the method:
as §2, §3

Assay [8] has as its system human nasopharyngeal cancer cell lines HNE1 and HONE1. Description: Cell survival assay (crystal violet). The conditions noted are these: for cell killing: 50 μM. In kind it is cell-based. Here is the method:
as §1
The cell-based cytotoxicity assay described herein was used to determine the effect of small molecule compounds FN1-5 and FN1-8 in the human nasopharyngeal cancer cell lines HNE1 and HONE1. Viability of these cells was analyzed after treatment with 10, 30 and 50 μM FN1-5 or FN1-8.

The test system of assay [9] is Tcf-mediated gene transcription (canonical Wnt signaling) in colon cancer cell line HCT116. The assay is described as follows: TOPFLASH (TOP/FOP) assay. To be noted: HCT116, 30 μM; for TOP/FOP activity: 18-24 hours. It counts as cell-based, human. As to the method: Cells were plated in 12-well plates. The TOPFLASH or FOPFLASH reporter plasmid (Upstate; Charlottesville, Va.) was transfected transiently into cells as described above. Tcf-mediated gene transcription was determined by the ratio of pTOPFLASH:pFOPFLASH luciferase activity, each was normalized to luciferase activities of the pRL-TK reporter (co-transfected internal control). All experiments were performed in triplicate, and repeated three times.
As another specificity test of the small molecule compounds of the invention, it was tested whether small molecule compounds FN1-5, FN1-7, FN1-8, FN1-9U, FN1-9S, FN2-1, and FN3-5 could regulate the transcription activity of the canonical Wnt signaling by using TOP/FOP assay.

The next assay deals with Normal muscle cells. The assay is described as follows: Apoptosis analysis (Annexin V FITC, flow cytometry). It counts as cell-based, human. To be noted: 3 days. Here is the method: as §2
In addition, apoptosis induction after the treatment of different doses of FN1-5 or FN1-8 in normal human muscle cells was examined by flow cytometry. Normal muscle cells were plated in 6-well plates and incubated with 1, 10, 30, and 50 μM of each compound for 3 days, as above.

Assay [10] relates to primary cultured human mesothelioma cells. The assay is described as follows: Cell survival assay (crystal violet). In kind it is cell-based. To be noted: for cell killing effect: 50 and 100 μM, 3 days. Here is the method: Fresh cancer tissue and adjacent normal tissue from patients undergoing curative primary resection of their tumors were collected at the time of surgery (IRB approval H8714-15319-040), and immediately snap-frozen in liquid nitrogen. These tissue samples were kept at −170° C. in a liquid nitrogen freezer until further use. Primary tissue cultures were prepared as follows: Fresh cancer tissue was obtained with consent from patients undergoing resection, cut into small pieces (1-2 mm in diameter), and then digested with Collagenase A (Roche Applied Science, Indianapolis, Ind.) at room temperature for 2 hours according to manufacture's protocol. Single cells from the digestion were spun down and the cell pellets were washed twice using RPMI 1640 supplemented with 10% fetal bovine serum, penicillin (100 IU/ml) and streptomycin (100 μg/ml). Then, the cells were resuspended in the same medium and cultured in 6-well plates at 37° C. in a humid incubator with 5% CO2 until they were ready for further treatments.
as §1
Next, the effect of different small molecule compounds on primary cultured human mesothelioma cells freshly made from tissue samples was examined. The primary cultures were plated in 6-well plates as described herein and incubated with 50 and 100 μM of each compound (FN1-5, FN1-7, FN1-8, and FN3-5; stocks were dissolved in DMSO at 30 mM) for 3 days. […] (FIG. 8).

On to `O=C(NCCCCCO)C1C(c2ccccc2)=NN(c2ccccc2)C1c1ccccc1` (centres unmarked) [FN1-5, N-(5-Hydroxypentyl)-1,3,5-triphenyl-4,5-dihydro-pyrazole-4-carboxyamide], for which the cell killing result in assay [1], in [2], in [3] and in assay [8] was “dramatic cell killing” each time. Also, the “cell killing in Panc4.21 compared to the three other pancreatic cancer cell lines” value in [2] (Panc4.21) is listed as “less”. Moreover, the “% of apoptotic cells” value in assay [4] (L3.6s1, 30 μM) amounted to 27.5%; in [4] (L3.6s1, 50 μM) it was 44.8%; in assay [5] (Panc4.21, 30 μM) it was 9.3%; in assay [5] (Panc4.21, 50 μM), 10.3%; in assay [6] (CFPAC-1, 30 μM) it was 17.4%; in [6] (CFPAC-1, 50 μM), 30.6%. Also, the “% of apoptotic cells” value was determined as 11.2% in [7] (BxPC3, 30 μM); 30.0% in [7] (BxPC3, 50 μM); 7.5% with Normal muscle cells (10 μM); 7.6% in the assay on Normal muscle cells (30 μM); 8.8% in the assay on Normal muscle cells (50 μM). Also, the apoptosis induction result in [5] (Panc4.21, 30 and 50 μM) was “did not seem to induce apoptosis”. Besides, in [9], the TOP/FOP activity entry is reported as “down-regulate TOP/FOP activity dramatically”. Moreover, in [10], the cell killing effect entry is reported as “Dramatic cell killing effect”.
Regarding `O=C(NCCc1ccc(O)cc1)C1C(c2ccccc2)=NN(c2ccccc2)C1c1ccccc1` (centres unmarked) [FN1-8, N-(2-(4-Hydroxyphenyl)ethyl)-1,3,5-triphenyl-4,5-dihydro-pyrazole-4-carboxyamide], the cell killing entry in [1], in [2], in assay [3] and in [8] was “dramatic cell killing” throughout. The “cell killing potency compared with FN1-5” value in [3] is listed as “more potent”; in [8], “more potent”; in [10] (same dose), “more potent than FN1-5”. Also, the “% of apoptotic cells” value in assay [4] (L3.6s1, 10 μM) stood at 12.8%; in assay [4] (L3.6s1, 30 μM), 25.1%; in assay [4] (L3.6s1, 50 μM), 45.7%; in assay [5] (Panc4.21, 10 μM) it was 11.2%; in [5] (Panc4.21, 30 μM), 10.6%; in assay [5] (Panc4.21, 50 μM), 23.4%. For the same molecule, the “% of apoptotic cells” value in [6] (CFPAC-1, 10 μM) was found to be 15.4%; in assay [6] (CFPAC-1, 30 μM), 15.0%; in [6] (CFPAC-1, 50 μM), 19.8%; in assay [7] (BxPC3, 10 μM), 11.4%; in assay [7] (BxPC3, 30 μM), 20.4%; in assay [7] (BxPC3, 50 μM), 77.4%. For the same molecule, the “% of apoptotic cells” value in the assay on Normal muscle cells (10 μM) was found to be 7.8%; in the assay on Normal muscle cells (30 μM), 9.3%; in the assay with Normal muscle cells (50 μM), 9.7%. For the same molecule, the “reduction of TOP/FOP activity” value in assay [9] is “about 36%”. Besides, the TOP/FOP activity result in assay [9] was “down-regulate TOP/FOP activity dramatically”. In addition, the cell killing effect entry in [10] is listed as “Dramatic cell killing effect”.
